Assays:
[1] = Thermal stability of compound in DMSO/methanol assessed as decomposition temperature by UV spectroscopic method; type: physicochemical
[2] = Photoprotection activity against UV radiation
[3] = Antioxidant activity assessed as DPPH free radical scavenging activity at 300 uM incubated for 60 mins by spectrophotometric method relative to control; type: functional
[4] = Antioxidant activity assessed as DPPH free radical scavenging activity at 100 uM incubated for 60 mins by spectrophotometric method relative to control; type: functional
[5] = Antioxidant activity assessed as DPPH free radical scavenging activity at 200 uM incubated for 60 mins by spectrophotometric method relative to control; type: functional
[6] = Antioxidant activity assessed as DPPH free radical scavenging activity at 400 uM incubated for 60 mins by spectrophotometric method relative to control; type: functional
[7] = Thermal stability of compound in DMSO/methanol assessed as onset temperature by UV spectroscopic method; type: physicochemical
[8] = Photoprotection activity against UV radiation assessed as ratio of UVA to UVB
[9] = Thermal stability of compound in DMSO/methanol assessed as mass loss by UV spectroscopic method; type: physicochemical; conditions: read-out: Drug degradation

Structure (SMILES)	T [1]	T [7]	degraded [9]	SPF [2]	UVAPF [2]	Activity [3]	Activity [4]	Activity [5]	Activity [6]	Ratio [8]
Oc1ccc(/C=C/c2cc(O)cc(O)c2)cc1 [RESVERATROL]	266.95 °C	263.46 °C	32.9%	2	2	56.2%	46.8%	55.9%	62.2%	0.7
O=C(N/N=C/c1ccc(Oc2nc(Oc3ccc(/C=N/NC(=O)c4ccccc4)cc3)nc(Oc3ccc(/C=N/NC(=O)c4ccccc4)cc3)n2)cc1)c1ccccc1	294.21 °C	275.89 °C	36.7%	9	5	2%	0.9%	1.3%	2.4%	0.6
O=C(N/N=C/c1ccc(Oc2nc(Oc3ccc(/C=N/NC(=O)c4ccc([N+](=O)[O-])cc4)cc3)nc(Oc3ccc(/C=N/NC(=O)c4ccc([N+](=O)[O-])cc4)cc3)n2)cc1)c1ccc([N+](=O)[O-])cc1	304.87 °C	291.8 °C	37.3%	4	3	2.7%	0.5%	2.2%	3.5%	0.8
O=C(N/N=C/c1ccc(Oc2nc(Oc3ccc(/C=N/NC(=O)c4ccc(O)cc4O)cc3)nc(Oc3ccc(/C=N/NC(=O)c4ccc(O)cc4O)cc3)n2)cc1)c1ccc(O)cc1O	309.94 °C	218.88 °C	39.8%	3	2	75.1%	55.3%	74.2%	75.6%	0.5
CC(C)(C)c1ccc(C(=O)N/N=C/c2ccc(Oc3nc(Oc4ccc(/C=N/NC(=O)c5ccc(C(C)(C)C)cc5)cc4)nc(Oc4ccc(/C=N/NC(=O)c5ccc(C(C)(C)C)cc5)cc4)n3)cc2)cc1	326.22 °C	324.37 °C	41.2%	14	7	4.8%	4%	4.3%	5.9%	0.5
O=C(N/N=C/c1ccc(Oc2nc(Oc3ccc(/C=N/NC(=O)c4cccc(O)c4)cc3)nc(Oc3ccc(/C=N/NC(=O)c4cccc(O)c4)cc3)n2)cc1)c1cccc(O)c1	297.87 °C	248.22 °C	18.7%	4	2	5.8%	4.2%	4.4%	6.3%	0.4

Continued, in another order:

T [1]	T [7]	degraded [9]	Structure (SMILES)	SPF [2]	UVAPF [2]	Activity [3]	Activity [4]	Activity [5]	Activity [6]	Ratio [8]
236.25 °C	235.6 °C	36.8%	O=C(N/N=C/c1ccc(Oc2nc(Oc3ccc(/C=N/NC(=O)c4ccncc4)cc3)nc(Oc3ccc(/C=N/NC(=O)c4ccncc4)cc3)n2)cc1)c1ccncc1	5	3	2.4%	0%	0.5%	6.1%	0.4
272.15 °C	267.35 °C	11.6%	O=C(N/N=C/c1ccc(Oc2nc(Oc3ccc(/C=N/NC(=O)c4ccc(O)cc4)cc3)nc(Oc3ccc(/C=N/NC(=O)c4ccc(O)cc4)cc3)n2)cc1)c1ccc(O)cc1	7	4	6.7%	4.4%	5.6%	8.2%	0.5
232.29 °C	119.99 °C	68.7%	CCCCC(CC)COC(=O)c1ccc(Nc2nc(Nc3ccc(C(=O)OCC(CC)CCCC)cc3)nc(Nc3ccc(C(=O)OCC(CC)CCCC)cc3)n2)cc1 (stereo not given)	3	3	2.6%	0%	1.6%	3.5%	0.8
269.71 °C	264.89 °C	19.6%	O=C(N/N=C/c1ccc(Oc2nc(Oc3ccc(/C=N/NC(=O)c4ccccc4O)cc3)nc(Oc3ccc(/C=N/NC(=O)c4ccccc4O)cc3)n2)cc1)c1ccccc1O	17	13	0.3%	0%	0%	0.8%	0.7

— ChEMBL document CHEMBL4406909, “Synthesis and evaluation of 1,3,5-triazine derivatives as sunscreens useful to prevent skin cancer” (Bioorg Med Chem Lett, 2019)
